# Measured values reported in patent US20030108574A1, “Carbohydrate-based whole cell cancer vaccines” (priority 2001, published 2003).
# Values joined by “and” are separate entries in the source; they are usually repeats but may differ in a detail not shown here. Equal values may be shown once.
# Assays:
# [1] = tested on: polysialic acid; conditions: RMA-S tumor-bearing mice, CY day 7, vaccine day 8
# Procedure: ELISA. Total IgG antibody was measured by ELISA. Each well of ELISA plate was coated with HAS conjugates (0.5 μl/50 μl PBS/well) of NAc or NPr polysialic acids (11 kDa fractions), and blocked with 150 μl of 10%FBS in PBS. The plates were then washed three times with PBS and Tween20 (0.05%). Sera were added into well of plate after serial dilutions. The plates were kept for 1 hour at room temperature. After washing, anti-mouse IgG conjugates with horseradish peroxide (50 μl) were added into each well of plate and incubated for 1 hour at room temperature. Plates were further washed five times with PBS and Tween20 (0.05%) and 100 Ill of substrate 2,2′-azino-bis-(3-ethylbenthiazoline-6-sulfonic acid)(1 mg/ml) in 44 mM Na2HPO4, 20 mM citric acid and 0.3% H2O2. The plates were read at 405 nm with reference wavelength of 490 nm.
# (§2) Vaccine preparation and administration. RMA-S cells were incubated with ManNPr (1 mg/ml) for 48 hour, and after washing with PBS, they were suspended in PBS and killed by heating at 70° C. for 10 min. Mice were injected subcutaneously with 2×10^6 RMA-S cells at the area of rear flank to develop a solid tumor. […] Whole cell vaccines (2×10^6 cells) were inoculated at day 8 and tumor growth was monitored routinely.
# [2] = tested on: RMA-S tumor; assay: Spleen metastasis by limiting dilution of spleen cells
# Procedure: as §2
# Limiting dilution-Cell suspension of the mouse spleen was prepared in RPMI 1640 medium. One fifth of each spleen suspension was used to initiate a 2-fold serial dilution with complete RPMI 1640 medium and the cells were cultured over 20 days. Cancer cells of metastasis of spleen were examined under the microscope.
# One fifth of cell suspension of spleen was used to initiate a serial 2-fold dilution. Cells were cultured over 20 days and tumor cells from the spleen were examined under the microscope. The negative score was the cell culture that had no tumor cells in comparison of the positive score with tumor cells in cell culture.
# [3] = tested on: RMA-S cells; assay: Flow cytometry of polysialic acid and NPr polysialic acid expression on RMA-S cells incubated with ManNPr; format: cell-based, mouse
# Procedure: (§1) Flow Cytometry. For flow cytometry, cells were incubated with MAbs 13D9 or 735 in 50 μl of RPMI+1% FBS on ice for 30 min. The cells were then washed and incubated with FITC-labelled secondary antibodies. After 30 min the cells were washed and fixed in 1% formaldehyde and assayed on a flow cytometer (Coulter Incorporation, Miami, Fla.).
# Preparation of vaccines. RMA-S cells derived from leukemic cell line RMA, are defective in transportation-associated proteins (12). However, RMA-S cells like those of the original RMA cells (9), can still incorporate ManNPr into their surface polysialic acid as shown by flow cytometric analysis. FIG. […] Following harvesting of the cells the expression of polysialic acid and its NPr analog were measured by flow cytometry using MAb 735 and MAb 13D9 respectively.
# Heat-killed RMA-S cells pretreated with 1 mg/ml ManNPr for 48 h, were then used as the autologous vaccine.
# [4] = tested on: P815 cells; assay: Flow cytometry of polysialic acid and NPr polysialic acid expression on P815 cells incubated with ManNPr; format: cell-based, mouse; conditions: 1 mg/ml ManNPr
# Procedure: as §1
# To identify a cell line allogeneic to RMA-S, but which was also able to express polysialic acid, a number of allogeneic tumor cell lines were screened by flow cytometric analysis using MAb 735 (data not shown). […] FIG. 1B illustrates NPr polysialic acid expression on the surface of tumor cells for P815 cells incubated with 1 mg/ml ManNPr in cell culture. The cells were harvested at intervals and the expression of polysialic acid and its NPr analog were measured as described above. P815 cells were treated with ManNPr for different time periods, and after washing, they were stained with either MAb 735 or MAb 13D9. […] Obviously the transformation of polysialic acid on the surface of P815 cells follows a different pattern from RMA-S RMA and RBL-2H3 (9) cell lines that already have higher initial levels of expression of polysialic acid. Heat-killed P815 cells, pretreated with ManNPr, were then used as the allogeneic vaccine.
Compound,sera binding to polysialic acid [1],Percentage of spleen metastasis ([2]; Table 3 experiment) [%],"Metastasis of Spleen, Percentage ([2]; day 35, summary of two experiments)","metastasis score of spleen of individual mouse (row head: Treatment) ([2]; one cell per mouse, spleen cells cultured over 20 days)",conversion of surface polysialic acid to NPr polysialic acid (staining with MAb 13D9) ([3]; ManNPr at different concentrations),binding of MAb 735 (polysialic acid) to the cell surface ([3]; increasing amounts of ManNPr),binding of MAb 735 (polysialic acid) to the cell surface [4],shift of fluorescence on staining with MAb 13D9 (NPr polysialic acid) ([4]; different time periods)
"O=P1(N(CCCl)CCCl)NCCCO1 (centres unmarked) [CY, cyclophosphamide]",no binding,75,(78%),+ (3×) and −,–,–,–,–
"CCC(=O)N[C@@H]1C(O)O[C@H](CO)[C@@H](O)[C@@H]1O (some centres unmarked) [ManNPr, N-propionylmannosamine]",–,–,–,–,significantly converted to NPr polysialic acid,binding to the cell surface became weaker,slight increase in the binding of MAb 735,large shift of fluorescence
